Patent US20240287078A1, “QUINAZOLINE DERIVATIVES USEFUL AS RAS INHIBITORS” (Redx Pharma PLC, priority 2021, published 2024)

Key:
Assay type in all cases: biochemical
KRAS G12D = molecular target: T1, KRAS G12D (Homo sapiens, UniProt P01116, G12D); assay: HTRF nucleotide exchange assay (NEA), KRAS G12D; conditions: recombinant human KRAS aa1-188 G12D, 2 nM; 60 min compound incubation, EDA-GTP-DY647P1
T1 construct: aa1-188 KRAS WT, HRAS WT, NRAS WT, or KRAS containing the containing the G12D, G13D or Q61H amino acid substitutions
T1 sequence (P01116 1-188 isoform P01116-2 G12D): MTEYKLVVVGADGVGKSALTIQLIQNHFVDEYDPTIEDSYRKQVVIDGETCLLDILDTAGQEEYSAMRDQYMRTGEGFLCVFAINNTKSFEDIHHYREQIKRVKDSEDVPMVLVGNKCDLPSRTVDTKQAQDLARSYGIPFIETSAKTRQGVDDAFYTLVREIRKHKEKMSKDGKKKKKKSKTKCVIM
Method: (§1) HTRF Nucleotide Exchange Assay Method
(§2) The capacity of compounds to bind KRAS G12D, other KRAS mutants and wildtype RAS isoforms was quantified using a HTRF nucleotide exchange assay. Recombinant human RAS protein (2 nM; aa1-188 KRAS WT, HRAS WT, NRAS WT, or KRAS containing the containing the G12D, G13D or Q61H amino acid substitutions, or 4 nM KRAS; aa1-188 containing the G12V, G12C, G12A or G12S amino acid substitution, an N-terminal 6×His-tag and leader sequence), and 2 nM Europium-labeled anti-6×His antibody were mixed in assay buffer (10 mM HEPES pH7.3, 150 mM NaCl, 5 mM MgCl2, 0.05% BSA, 0.0025% NP-40 and 100 mM KF) with various concentrations of compound in a 384-well plate and a volume of 5 uL. After a 60-minute incubation at room temperature, Sul of 200 nM EDA-GTP-DY647P1 (diluted in assay buffer) was added to the plate. Following 30-minute incubation at room temperature, time-resolved fluorescence was measured on a PerkinElmer Envision plate reader. DMSO (0.3%) and unlabeled GDP (1 μM) or equivalent tool compound were used to generate the Max and Min assay signals, respectively. Data was analysed using a four-parameter logistic model to calculate IC50 values, with at least two independent replicates were performed for each compound.

KRAS WT = molecular target: T2, KRAS WT (Homo sapiens, UniProt P01116); assay: HTRF nucleotide exchange assay (NEA), KRAS WT; conditions: recombinant human KRAS WT aa1-188, 2 nM; 60 min compound incubation, EDA-GTP-DY647P1
T2 construct: aa1-188 KRAS WT, HRAS WT, NRAS WT
T2 sequence (P01116 1-188 isoform P01116-2): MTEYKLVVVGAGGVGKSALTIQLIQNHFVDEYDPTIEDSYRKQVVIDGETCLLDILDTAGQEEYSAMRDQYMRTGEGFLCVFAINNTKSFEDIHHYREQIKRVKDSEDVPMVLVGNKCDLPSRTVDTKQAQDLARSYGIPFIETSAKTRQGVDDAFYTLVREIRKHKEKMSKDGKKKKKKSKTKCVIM
Method: as §1, §2

KRAS G12C = molecular target: T3, KRAS G12C (Homo sapiens, UniProt P01116, G12C); assay: HTRF nucleotide exchange assay (NEA), KRAS G12C; conditions: recombinant human KRAS aa1-188 G12C, 4 nM; 60 min compound incubation, EDA-GTP-DY647P1
T3 construct: 4 nM KRAS; aa1-188 containing the G12V, G12C, G12A or G12S amino acid substitution
T3 sequence (P01116 1-188 isoform P01116-2 G12C): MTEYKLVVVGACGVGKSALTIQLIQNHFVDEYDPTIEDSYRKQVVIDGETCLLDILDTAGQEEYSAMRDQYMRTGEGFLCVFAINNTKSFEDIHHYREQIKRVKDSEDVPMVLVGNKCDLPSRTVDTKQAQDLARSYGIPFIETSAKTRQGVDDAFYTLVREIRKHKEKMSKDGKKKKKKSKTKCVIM
Method: as §1, §2

KRAS G12V = molecular target: T4, KRAS G12V (Homo sapiens, UniProt P01116, G12V); assay: HTRF nucleotide exchange assay (NEA), KRAS G12V; conditions: recombinant human KRAS aa1-188 G12V, 4 nM; 60 min compound incubation, EDA-GTP-DY647P1
T4 construct: 4 nM KRAS; aa1-188 containing the G12V, G12C, G12A or G12S amino acid substitution
T4 sequence (P01116 1-188 isoform P01116-2 G12V): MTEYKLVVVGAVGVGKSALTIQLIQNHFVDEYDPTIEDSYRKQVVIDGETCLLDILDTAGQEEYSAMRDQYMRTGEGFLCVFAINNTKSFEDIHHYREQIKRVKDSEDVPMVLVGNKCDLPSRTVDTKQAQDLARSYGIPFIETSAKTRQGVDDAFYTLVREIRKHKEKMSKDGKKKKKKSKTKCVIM
Method: as §1, §2

KRAS G12S = molecular target: T5, KRAS G12S (Homo sapiens, UniProt P01116, G12S); assay: HTRF nucleotide exchange assay (NEA), KRAS G12S; conditions: recombinant human KRAS aa1-188 G12S, 4 nM; 60 min compound incubation, EDA-GTP-DY647P1
T5 construct: 4 nM KRAS; aa1-188 containing the G12V, G12C, G12A or G12S amino acid substitution
T5 sequence (P01116 1-188 isoform P01116-2 G12S): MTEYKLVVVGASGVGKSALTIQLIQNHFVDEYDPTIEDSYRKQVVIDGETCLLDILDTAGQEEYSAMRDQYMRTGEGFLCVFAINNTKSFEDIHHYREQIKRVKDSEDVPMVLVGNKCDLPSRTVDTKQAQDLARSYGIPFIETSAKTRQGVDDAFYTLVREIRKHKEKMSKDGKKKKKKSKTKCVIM
Method: as §1, §2

KRAS G12A = molecular target: T6, KRAS G12A (Homo sapiens, UniProt P01116, G12A); assay: HTRF nucleotide exchange assay (NEA), KRAS G12A; conditions: recombinant human KRAS aa1-188 G12A, 4 nM; 60 min compound incubation, EDA-GTP-DY647P1
T6 construct: 4 nM KRAS; aa1-188 containing the G12V, G12C, G12A or G12S amino acid substitution
T6 sequence (P01116 1-188 isoform P01116-2 G12A): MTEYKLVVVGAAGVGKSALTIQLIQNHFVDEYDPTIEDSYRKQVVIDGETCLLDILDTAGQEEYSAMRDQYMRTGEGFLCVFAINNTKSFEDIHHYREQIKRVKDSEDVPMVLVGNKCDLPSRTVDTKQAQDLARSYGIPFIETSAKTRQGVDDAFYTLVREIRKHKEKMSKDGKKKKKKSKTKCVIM
Method: as §1, §2

KRAS G13D = molecular target: T7, KRAS G13D (Homo sapiens, UniProt P01116, G13D); assay: HTRF nucleotide exchange assay (NEA), KRAS G13D; conditions: 1 h; recombinant human KRAS aa1-188 G13D, 2 nM; 60 min compound incubation, EDA-GTP-DY647P1
T7 construct: aa1-188 KRAS WT, HRAS WT, NRAS WT, or KRAS containing the containing the G12D, G13D or Q61H amino acid substitutions
T7 sequence (P01116 1-188 isoform P01116-2 G13D): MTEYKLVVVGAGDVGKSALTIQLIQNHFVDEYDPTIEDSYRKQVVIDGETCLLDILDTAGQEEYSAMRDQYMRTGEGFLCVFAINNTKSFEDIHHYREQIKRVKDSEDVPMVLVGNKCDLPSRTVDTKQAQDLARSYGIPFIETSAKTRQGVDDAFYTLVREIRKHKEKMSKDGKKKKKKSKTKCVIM
Method: as §1
The capacity of compounds to bind KRAS G12D, other KRAS mutants and wildtype RAS isoforms was quantified using a HTRF nucleotide exchange assay. […] After a 60-minute incubation at room temperature, Sul of 200 nM EDA-GTP-DY647P1 (diluted in assay buffer) was added to the plate. Following 30-minute incubation at room temperature, time-resolved fluorescence was measured on a PerkinElmer Envision plate reader. DMSO (0.3%) and unlabeled GDP (1 μM) or equivalent tool compound were used to generate the Max and Min assay signals, respectively. Data was analysed using a four-parameter logistic model to calculate IC50 values, with at least two independent replicates were performed for each compound.

KRAS Q61H = molecular target: T8, KRAS Q61H (Homo sapiens, UniProt P01116, Q61H); assay: HTRF nucleotide exchange assay (NEA), KRAS Q61H; conditions: recombinant human KRAS aa1-188 Q61H, 2 nM; 60 min compound incubation, EDA-GTP-DY647P1
T8 construct: aa1-188 KRAS WT, HRAS WT, NRAS WT, or KRAS containing the containing the G12D, G13D or Q61H amino acid substitutions
T8 sequence (P01116 1-188 isoform P01116-2 Q61H): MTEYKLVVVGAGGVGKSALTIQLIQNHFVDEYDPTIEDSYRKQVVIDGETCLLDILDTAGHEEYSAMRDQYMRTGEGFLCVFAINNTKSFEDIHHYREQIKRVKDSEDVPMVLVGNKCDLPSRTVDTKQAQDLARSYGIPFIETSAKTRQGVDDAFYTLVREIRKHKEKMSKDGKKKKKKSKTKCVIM
Method: as §1, §2

SMILES | IC50 (KRAS G12D) [nM] | IC50 (KRAS WT) [nM] | IC50 (KRAS G12C) [nM] | IC50 (KRAS G12V) [nM] | IC50 (KRAS G12S) [nM] | IC50 (KRAS G12A) [nM] | inhibition at 10 µM (KRAS G13D) [%] | IC50 (KRAS Q61H) [nM]
C#Cc1c(F)ccc2cc(O)cc(-c3ccc4c(N5CCCOCC5)nc(OC[C@@]56CCCN5C[C@H](F)C6)nc4c3C)c12 (racemic) [Example 6, rac-5-ethynyl-6-fluoro-4-[2-[[(2R,8S)-2-fluoro-1,2,3,5,6,7-hexahydropyrrolizin-8-yl]methoxy]-8-methyl-4-(1,4-oxazepan-4-yl)quinazolin-7-yl]naphthalen-2-ol] | < 10 | < 10 | < 10 | < 10 | < 10 | < 10 | 10 to 49 | < 10
C#Cc1c(F)ccc2cc(O)cc(-c3ccc4c(N5CCCNC(=O)C5)nc(OC[C@@]56CCCN5C[C@H](F)C6)nc4c3C)c12 (racemic) [Example 24, 4-[7-(8-ethynyl-7-fluoro-3-hydroxy-1-naphthyl)-2-[[rac-(2R,8S)-2-fluoro-1,2,3,5,6,7-hexahydropyrrolizin-8-yl]methoxy]-8-methyl-quinazolin-4-yl]-1,4-diazepan-2-one] | < 10 | < 10 | < 10 | < 10 | 10 to 100 | < 10 | – | 10 to 100
C#Cc1c(F)ccc2cc(O)cc(-c3ccc4c(N5CCCOCC5)nc(OC[C@@]56CCCN5C[C@H](F)C6)nc4c3F)c12 (racemic) [Example 26, 5-ethynyl-6-fluoro-4-[8-fluoro-4-(1,4-oxazepan-4-yl)-2-[[rac-(2R,8S)-2-fluoro-1,2,3,5,6,7-hexahydropyrrolizin-8-yl]methoxy]quinazolin-7-yl]naphthalen-2-ol] | < 10 | < 10 | < 10 | < 10 | < 10 | < 10 | – | –
Cc1c(-c2cc(O)cc3ccccc23)ccc2c(N3CCCOCC3)nc(OCC34CCCN3CCC4)nc12 [Example 2, 4-[2-(1,2,3,5,6,7-hexahydropyrrolizin-8-ylmethoxy)-8-methyl-4-(1,4-oxazepan-4-yl)quinazolin-7-yl]naphthalen-2-ol] | 100 to 10000 | 100 to 10000 | 100 to 10000 | 100 to 10000 | – | – | 10 to 49 | 100 to 10000
Cc1c(-c2cccc3sc(N)c(C#N)c23)ccc2c(N3CCCOCC3)nc(OCC34CCCN3CCC4)nc12 [Example 22, 2-amino-4-[2-(1,2,3,5,6,7-hexahydropyrrolizin-8-ylmethoxy)-8-methyl-4-(1,4-oxazepan-4-yl)quinazolin-7-yl]benzothiophene-3-carbonitrile] | 10 to 100 | 10 to 100 | < 10 | < 10 | 100 to 10000 | 10 to 100 | – | 10 to 100
Oc1cc(-c2ccc3c(N4CCCOCC4)nc(OCC45CCCN4CCC5)nc3c2F)c2ccccc2c1 [Example 25, 4-[8-fluoro-2-(1,2,3,5,6,7-hexahydropyrrolizin-8-ylmethoxy)-4-(1,4-oxazepan-4-yl)quinazolin-7-yl]naphthalen-2-ol] | 10 to 100 | 10 to 100 | 10 to 100 | 10 to 100 | 100 to 10000 | 10 to 100 | 10 to 49 | 100 to 10000
N#Cc1cc2c(N3CCCOCC3)nc(OCC34CCCN3CCC4)nc2c(F)c1-c1cc(O)cc2ccccc12 [Example 27, 8-fluoro-2-(1,2,3,5,6,7-hexahydropyrrolizin-8-ylmethoxy)-7-(3-hydroxy-1-naphthyl)-4-(1,4-oxazepan-4-yl)quinazoline-6-carbonitrile] | 10 to 100 | 10 to 100 | 10 to 100 | 10 to 100 | 100 to 10000 | 100 to 10000 | – | –
